From patent publication US12389911B2, “Benzimidazole compound or salt thereof, agricultural and horticultural insecticidal and acaricidal agent containing said compound, and method for using same” (NIHON NOHYAKU CO., LTD., priority 2019, dated 2025)

Key:
Assay type in all cases: in vivo
[1] = tested on: Small brown planthopper (Laodelphax striatellus); assay: Insecticidal test on small brown planthopper (rice seedling dip); conditions: 500 ppm, rice seedlings dipped 30 seconds, ten 3rd-instar larvae, 8 days after inoculation
Source text: Insecticidal Test on Small Brown Planthopper (Laodelphax striatellus)
The benzimidazole compounds represented by the general formula (1) of the present invention or salts thereof were separately dispersed in water and diluted to 500 ppm. Rice plant seedlings (variety: Nihonbare) were dipped in the agrochemical dispersions for 30 seconds. After air-dried, each seedling was put into a separate glass test tube and inoculated with ten 3rd-instar larvae of small brown planthopper, and then the glass test tubes were capped with cotton plugs. At 8 days after the inoculation, survival rates were calculated from the numbers of surviving larvae and dead larvae, the corrected mortality rate was calculated according to the formula shown below, and the insecticidal efficacy was evaluated according to the criteria shown below. Corrected mortality rate (%)=(Survival rate in a non-treatment plot−Survival rate in a treatment plot)/(Survival rate in a non-treatment plot)×100 [Expression 2] Criteria: • A: the corrected mortality rate is 100%. • B: the corrected mortality rate is 90 to 99%. • C: the corrected mortality rate is 80 to 89%. • D: the corrected mortality rate is 50 to 79%.

[2] = tested on: Two-spotted spider mite (Tetranychus urticae); assay: Acaricidal action on two-spotted spider mite (kidney bean leaf disk spray); conditions: 500 ppm, adult females, 25° C., two days after treatment
How it was run: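 Kidney bean leaf disks (2 cm) carrying adult female T. urticae were sprayed with compound dispersion at 500 ppm and held at 25 °C. Dead mites counted 2 days later and corrected mortality calculated against untreated plots; 10 adults per plot, in duplicate.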

[3] = tested on: Diamondback moth (Plutella xylostella); assay: Insecticidal test on diamondback moth (dip of Chinese cabbage seedlings with laid eggs); conditions: 500 ppm, seedlings with laid eggs dipped about 30 seconds, 25° C., 6 days after dip treatment
Source text: Insecticidal Test on Diamondback Moth (Plutella xylostella)
Adults of diamondback moth were released onto Chinese cabbage seedlings and allowed to lay eggs thereon. At 2 days after the release of the adults, the Chinese cabbage seedlings with laid eggs were dipped for about 30 seconds in agrochemical dispersions diluted to 500 ppm, each of which contained a different benzimidazole compound represented by the general formula (1) of the present invention or salt thereof as an active ingredient. After air-dried, the seedlings were kept in a thermostatic chamber at 25° C. At 6 days after the dip treatment, the number of hatched larvae per plot was counted, the corrected mortality rate was calculated according to the formula shown below, and the insecticidal efficacy was evaluated according to the criteria of Test Example 2. This test was conducted in triplicate using 10 adults of diamondback moth per plot. Corrected mortality rate (%)=(Number of hatched larvae in a non-treatment plot−Number of hatched larvae in a treatment plot)/(Number of hatched larvae in a non-treatment plot)×100 [Expression 3]

[4] = tested on: Green peach aphid (Myzus persicae); assay: Test for control efficacy on green peach aphid (foliar application on Chinese cabbage); conditions: 500 ppm, foliar application to potted Chinese cabbage, 6 days after application
Source text: Test for Control Efficacy on Green Peach Aphid (Myzus persicae) Chinese cabbage plants were planted in plastic pots (diameter: 8 cm, height: 8 cm), green peach aphids were propagated on the plants, and the number of surviving Green peach aphids in each pot was counted. The benzimidazole compounds represented by the general formula (1) of the present invention or salts thereof were separately dispersed in water and diluted to 500 ppm. The agrochemical dispersions were applied to the foliage of the potted Chinese cabbage plants. After the plants were air-dried, the pots were kept in a greenhouse. At 6 days after the foliar application, the number of surviving Green peach aphids on the Chinese cabbage plant in each pot was counted, the control rate was calculated according to the formula shown below, and the control efficacy was evaluated according to the criteria shown below. Control rate=100−{(T×Ca)/(Ta×C)}×100 [Expression 1] Ta: the number of survivors before the foliar application in a treatment plot T: the number of survivors after the foliar application in a treatment plot Ca: the number of survivors before the foliar application in a non-treatment plot C: the number of survivors after the foliar application in a non-treatment plot Criteria • A: the control rate is 100%. • B: the control rate is 90 to 99%. • C: the control rate is 80 to 89%. • D: the control rate is 50 to 79%.

Row | SMILES | insecticidal efficacy (corrected mortality rate), activity level [1] | acaricidal efficacy (corrected mortality rate), activity level [2] | insecticidal efficacy (corrected mortality rate), activity level [3] | control efficacy (control rate), activity level [4]
1 | CCS(=O)(=O)n1c(-n2cnc(CCc3ccccc3)c2)nc2ccccc21 [Compound 1-9] | D or higher | D or higher | – | –
2 | CCS(=O)(=O)n1c(-n2cnc(CCc3ccc(C(F)(F)F)cc3)c2)nc2ccccc21 [Compound 1-11] | – | D or higher | D or higher | –
3 | CCS(=O)(=O)n1c(-n2cnc(C(F)(C(F)(F)F)C(F)(F)F)c2)nc2ccccc21 [Compound 1-22, 1-ethanesulfonyl-2-(4-heptafluoroisopropylimidazol-1-yl)benzimidazole] | D or higher | D or higher | – | –
4 | CCS(=O)(=O)n1c(-n2cc(CCc3ccccc3)cn2)nc2ccccc21 [Compound 2-3] | – | D or higher | D or higher | –
5 | CCS(=O)(=O)n1c(-n2ccc(C(F)(F)F)n2)nc2ccccc21 [Compound 2-12] | D or higher | D or higher | – | –
6 | CCS(=O)(=O)n1c(-n2nc(C(F)(F)F)cc2C)nc2ccccc21 [Compound 2-17] | D or higher | D or higher | – | –
7 | C=Cc1cn(-c2nc3ccccc3n2S(=O)(=O)CC)nc1C(F)(F)F [Compound 2-21] | D or higher | D or higher | – | –
8 | CCS(=O)(=O)n1c(-n2cc(CCc3ccccc3)c(C(F)(F)F)n2)nc2ccccc21 [Compound 2-23] | – | D or higher | D or higher | –
9 | CCS(=O)(=O)n1c(-n2cc(C(=O)Oc3c(C)cccc3C)c(C(F)(F)F)n2)nc2ccccc21 [Compound 2-29] | D or higher | D or higher | – | –
10 | CCS(=O)(=O)n1c(-n2cc(SC(C)C)c(C(F)(F)F)n2)nc2ccccc21 [Compound 2-32] | D or higher | D or higher | – | –
11 | CCS(=O)(=O)n1c(-n2cc(Br)c(Br)n2)nc2ccccc21 [Compound 2-34] | – | D or higher | – | D or higher
12 | CCS(=O)(=O)n1c(-n2ccc(OCC(F)(F)C(F)(F)F)n2)nc2ccccc21 [Compound 2-38] | – | D or higher | D or higher | –
13 | CCS(=O)(=O)n1c(-n2cc(Cl)c(OCC(F)(F)C(F)(F)F)n2)nc2ccccc21 [Compound 2-39] | – | D or higher | – | D or higher
14 | CCS(=O)(=O)n1c(-n2cc(Br)c(OCC(F)(F)C(F)(F)F)n2)nc2ccccc21 [Compound 2-40] | – | D or higher | – | D or higher
15 | CCS(=O)(=O)n1c(-n2ccc(C(=O)OC(C)(C)C)n2)nc2ccccc21 [Compound 2-43] | – | D or higher | – | D or higher
16 | CCc1nn(-c2nc3ccccc3n2S(=O)(=O)CC)cc1C(=O)OC(C)(C)C [Compound 2-49] | – | D or higher | D or higher | –
17 | CCS(=O)(=O)n1c(-n2cc(C(=O)OC(C)(C)C)c(C(F)F)n2)nc2ccccc21 [Compound 2-51] | – | D or higher | – | D or higher
18 | CCS(=O)(=O)n1c(-n2cc(C(=O)OC(C)C)c(C(F)(F)F)n2)nc2ccccc21 [Compound 2-53] | – | D or higher | – | D or higher
19 | CCC(C)(C)OC(=O)c1cn(-c2nc3ccccc3n2S(=O)(=O)CC)nc1C(F)(F)F [Compound 2-54] | – | D or higher | – | D or higher
20 | CCS(=O)(=O)n1c(-n2cnc(C(F)(F)F)n2)nc2ccccc21 [Compound 3-1] | – | D or higher | – | D or higher
